Several values for one entry are separate records, joined by “and”; a condition that tells them apart may be missing. Equal values may be shown once.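 Briefly, cells in 96-well plates were exposed to five compound concentrations for 48 h, and endpoints were estimated by linear interpolation. GI50 marks 50% less growth.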 Activity calls are given as the source filed them. No stated cut-off is given here; in the data, active = GI50 up to about 1.1 µM and inactive = higher.
Columns and labels:
Assay in all cases: inhibition of tumour cell growth, NCI panel, 48 h
[1] = tested on: A549
[2] = tested on: PC-3
[3] = tested on: OVCAR-4
[4] = tested on: LOX IMVI
[5] = tested on: HCT-116
[6] = tested on: MDA-MB-435
[7] = tested on: OVCAR-5
[8] = tested on: K562
[9] = tested on: RXF 393
[10] = tested on: T47D
[11] = tested on: HL-60
[12] = tested on: OVCAR-8
[13] = tested on: SF-295
[14] = tested on: SK-MEL-2
[15] = tested on: SK-OV-3
[16] = tested on: HOP-62
[17] = tested on: 786-0
[18] = tested on: MOLT-4
[19] = tested on: UACC-62
[20] = tested on: NCI-H226
[21] = tested on: NCI-H522
[22] = tested on: DU-145
[23] = tested on: SK-MEL-5
[24] = tested on: M14
[25] = tested on: MCF7
[26] = tested on: SK-MEL-28
[27] = tested on: KM12
[28] = tested on: SF-539
[29] = tested on: CAKI-1
[30] = tested on: NCI/ADR-RES
[31] = tested on: HT-29
[32] = tested on: CCRF-CEM
[33] = tested on: HCT-15
[34] = tested on: SNB-19
[35] = tested on: SF-268
[36] = tested on: UACC-257
[37] = tested on: SN12C
[38] = tested on: NCI-H460
[39] = tested on: U-251
[40] = tested on: TK-10
[41] = tested on: OVCAR-3
[42] = tested on: SW-620
[43] = tested on: EKVX
[44] = tested on: Hs-578T
[45] = tested on: COLO 205
[46] = tested on: A498
[47] = tested on: SNB-75
[48] = tested on: SR
[49] = tested on: Malme-3M
[50] = tested on: IGROV-1
[51] = tested on: UO-31
[52] = tested on: RPMI-8226
[53] = tested on: BT-549
[54] = tested on: MDA-N
[55] = tested on: MDA-MB-231
[56] = tested on: NCI-H23

SMILES: COc1ccccc1NC(=S)Nc1cccc(C)n1
- GI50 [1]: > 100 µM (inactive)
- GI50 [2]: > 100 µM (inactive)
- GI50 [3]: > 100 µM (inactive)
- GI50 [4]: > 100 µM (inactive)
- GI50 [5]: > 100 µM (inactive)
- GI50 [6]: > 100 µM (inactive)
- GI50 [7]: > 100 µM (inactive)
- GI50 [8]: > 100 µM (inactive)
- GI50 [9]: > 100 µM (inactive)
- GI50 [10]: > 100 µM (inactive)
- GI50 [11]: > 100 µM (inactive)
- GI50 [12]: > 100 µM (inactive)
- GI50 [13]: 69 µM (inactive)
- GI50 [14]: > 100 µM (inactive)
- GI50 [15]: > 100 µM (inactive)
- GI50 [16]: 43.6 µM (inactive)
- GI50 [17]: 79.3 µM (inactive)
- GI50 [18]: > 100 µM (inactive)
- GI50 [19]: 42.4 µM (inactive)
- GI50 [20]: 36.9 µM (inactive)
- GI50 [21]: 2.84 µM (inactive)
- GI50 [22]: > 100 µM (inactive)
- GI50 [23]: > 100 µM (inactive)
- GI50 [24]: > 100 µM (inactive)
- GI50 [25]: > 100 µM (inactive)
- GI50 [26]: > 100 µM (inactive)
- GI50 [27]: 25.6 µM (inactive)
- GI50 [28]: > 100 µM (inactive)
- GI50 [29]: 88.5 µM (inactive)
- GI50 [30]: > 100 µM (inactive)
- GI50 [31]: 45.3 µM (inactive)
- GI50 [32]: > 100 µM (inactive)
- GI50 [33]: > 100 µM
- GI50 [34]: > 100 µM (inactive)
- GI50 [35]: 18.4 µM (inactive)
- GI50 [36]: > 100 µM (inactive)
- GI50 [37]: > 100 µM (inactive)
- GI50 [38]: > 100 µM (inactive)
- GI50 [39]: > 100 µM (inactive)
- GI50 [40]: > 100 µM (inactive)
- GI50 [41]: > 100 µM (inactive)
- GI50 [42]: > 100 µM (inactive)
- GI50 [43]: 16.2 µM (inactive)
- GI50 [44]: 37.2 µM (inactive)
- GI50 [45]: > 100 µM (inactive)
- GI50 [46]: > 100 µM (inactive)
- GI50 [47]: 1.07 µM (active)
- GI50 [48]: > 100 µM (inactive)
- GI50 [49]: 16.7 µM (inactive)
- GI50 [50]: 31.8 µM (inactive)
- GI50 [51]: > 100 µM (inactive)
- GI50 [52]: > 100 µM (inactive)
- GI50 [53]: > 100 µM (inactive)

SMILES: COc1cccc(-c2cc(O)c3cc(N(C)C)ccc3n2)c1
- GI50 [3]: 4.95 µM (inactive) and 7.4 µM (inactive)
- GI50 [6]: 2.68 nM (active) and 1.39 nM (active)
- GI50 [7]: 48.1 nM (active) and 41.5 nM (active)
- GI50 [9]: 1.76 nM (active) and 18.8 nM (active)
- GI50 [10]: > 10 µM (inactive)
- GI50 [12]: 32.2 nM (active) and 18.2 nM (active)
- GI50 [16]: 25.6 nM (active) and 16.7 nM (active)
- GI50 [20]: 37.6 nM (active) and 23.7 nM (active)
- GI50 [54]: 1.24 nM (active) and 2.27 nM (active)
- GI50 [55]: 42.7 nM (active) and 25.8 nM (active)
- GI50 [31]: 22.9 nM (active) and 14 nM (active)
- GI50 [33]: 0.00925 µM and 0.0116 µM
- GI50 [34]: 30.4 nM (active) and 28.2 nM (active)
- GI50 [36]: 10.2 nM (active) and 5.13 nM (active)
- GI50 [37]: 44.9 nM (active) and 24.3 nM (active)
- GI50 [46]: < 0.01 µM (active)
- GI50 [56]: 31.4 nM (active) and 37.4 nM (active)
- GI50 [52]: 30.2 nM (active) and 37.2 nM (active)
- GI50 [53]: 0.681 µM (active)

Source: ChEMBL document CHEMBL1201862, “PubChem BioAssay data set” (2004)
